Measurements as given in patent US10174037B2, “Dihydropyrazolopyrimidinone compounds as PDE2 inhibitors” (Merck Sharp & Dohme Corp., priority 2015, dated 2019).

Target: human PDE2A1 (Homo sapiens (Human), UniProt O00408)
Assay: PDE selectivity IMAP FP assay, human PDE2A1
Format: biochemical
Conditions: Human PDE2; Lab B; read-out: Human PDE2 Ki (nM) Lab B
Procedure: Selectivity for PDE2, as compared to other PDE families, was assessed using the IMAP® technology. Human PDE10A2 enzyme was prepared from cytosolic fractions of transiently transfected HEK cells.
A Labcyte POD 810 (Labcyte, Sunnyvale, Calif.) was used to dispense 200 nL from each well of the titration plate to make eleven copies of the assay plate for each titration, one copy for each PDE enzyme. A solution of each enzyme (dilution from aliquots, sufficient to produce 20% substrate conversion) and a separate solution of FAM-labeled cAMP or FAM-labeled cGMP from Molecular Devices (Sunnyvale, Calif., product # R7506 or cGMP#R7508), at a final concentration of 50 nM were made in the assay buffer (10 mM Tris HCl, pH 7.2, 10 mM MgCl2, 0.05% NaN3 0.01% Tween-20, and 1 mM DTT). Note that the substrate for PDE2 is 50 nM FAM cAMP containing 1000 nM of cGMP. The enzyme and the substrate were then added to the assay plates in two consecutive additions of 10 μL and then shaken to mix. The reaction was allowed to proceed at room temperature for 60 minutes. A binding solution was then made from the kit components, comprised of 80% Solution A, 20% Solution B and binding reagent at a volume of 1/600 the total binding solution. The enzymatic reaction was stopped by addition of 60 μL of the binding solution to each well of the assay plate. […] The plates were incubated at room temperature for one hour, then the parallel and perpendicular fluorescence was measured using a Tecan Genios Pro plate reader (Tecan, Switzerland). […] The intrinsic PDE2 inhibitory activity of a compound which may be used in accordance with the present invention may be determined by these assays. […]
The PDE2 Ki is a measure of the ability of the test compound to inhibit the action of the PDE2 enzyme.

human PDE2A1, sequence (O00408 other isoform, or with tags, fused parts or gaps): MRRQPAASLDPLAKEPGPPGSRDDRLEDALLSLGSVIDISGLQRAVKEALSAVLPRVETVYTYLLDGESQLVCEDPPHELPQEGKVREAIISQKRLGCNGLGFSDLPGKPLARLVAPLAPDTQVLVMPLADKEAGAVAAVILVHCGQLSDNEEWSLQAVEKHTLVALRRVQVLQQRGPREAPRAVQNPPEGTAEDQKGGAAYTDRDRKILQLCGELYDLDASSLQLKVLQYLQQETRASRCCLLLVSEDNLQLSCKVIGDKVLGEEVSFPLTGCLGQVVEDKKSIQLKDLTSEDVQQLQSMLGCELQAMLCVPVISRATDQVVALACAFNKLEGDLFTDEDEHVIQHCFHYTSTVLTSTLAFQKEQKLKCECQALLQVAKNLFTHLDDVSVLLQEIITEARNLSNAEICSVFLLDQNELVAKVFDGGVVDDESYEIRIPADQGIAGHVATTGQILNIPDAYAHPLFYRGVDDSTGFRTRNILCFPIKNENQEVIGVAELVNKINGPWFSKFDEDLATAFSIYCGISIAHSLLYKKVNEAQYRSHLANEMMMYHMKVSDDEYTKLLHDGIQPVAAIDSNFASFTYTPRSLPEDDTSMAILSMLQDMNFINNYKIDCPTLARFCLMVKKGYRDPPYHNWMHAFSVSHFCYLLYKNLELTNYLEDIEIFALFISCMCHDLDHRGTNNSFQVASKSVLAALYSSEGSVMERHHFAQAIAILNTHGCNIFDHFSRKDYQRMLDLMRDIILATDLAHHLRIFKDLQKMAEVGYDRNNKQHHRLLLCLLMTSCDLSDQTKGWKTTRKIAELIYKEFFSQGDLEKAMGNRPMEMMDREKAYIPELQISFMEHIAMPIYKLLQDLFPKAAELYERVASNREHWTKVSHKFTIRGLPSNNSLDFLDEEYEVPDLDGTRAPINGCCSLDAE

SMILES | Ki [nM]
CCC(c1ccc(C(F)(F)F)cc1)n1nc(CF)c2c(=O)[nH]c(N(C)C)nc21 (single isomer, unassigned) [Example 172, (R)- or (S)-6-(Dimethylamino)-3-(fluoromethyl)-1-(1-(4-(trifluoromethyl)phenyl)propyl)-1H-pyrazolo[3,4-d]pyrimidin-4(5H)-one] | 2.2
CC(c1ccc(CC(F)(F)F)cc1)n1nc(CF)c2c(=O)[nH]c(N(C)C)nc21 (single isomer, unassigned) [Example 175, (S)- or (R)-6-(Dimethylamino)-3-(fluoromethyl)-1-(1-(4-(2,2,2-trifluoroethyl)phenyl)ethyl)-1H-pyrazolo[3,4-d]pyrimidin-4(5H)-one] | 0.39
CN(C)c1nc2c(c(CF)nn2C(c2ccc(C(F)(F)F)c(F)c2)C2CC2)c(=O)[nH]1 (single isomer, unassigned) [Example 180, (R)- or (S)-1-(Cyclopropyl(3-fluoro-4-(trifluoromethyl)phenyl)methyl)-6-(dimethylamino)-3-(fluoromethyl)-1H-pyrazolo[3,4-d]pyrimidin-4(5H)-one] | 1.2
CC(c1ccc(C(F)(F)F)cc1F)n1nc(CF)c2c(=O)[nH]c(N(C)C)nc21 (single isomer, unassigned) [Example 187, (S)- or (R)-6-(Dimethylamino)-1-(1-(2-fluoro-4-(trifluoromethyl)phenyl)ethyl)-3-(fluoromethyl)-1H-pyrazolo[3,4-d]pyrimidin-4(5H)-one] | 19
CC(c1ccc(C(F)F)cc1)n1nc(CF)c2c(=O)[nH]c(N(C)C)nc21 (single isomer, unassigned) [Example 190, (R)- or (S)-1-(1-(4-(Difluoromethyl)phenyl)ethyl)-6-(dimethylamino)-3-(fluoromethyl)-1H-pyrazolo[3,4-d]pyrimidin-4(5H)-one] | 27
CC(c1ccc(C(C)(F)F)cc1)n1nc(CF)c2c(=O)[nH]c(N(C)C)nc21 (single isomer, unassigned) [Example 194, (R)- or (S)-1-(1-(4-(1,1-Difluoroethyl)phenyl)ethyl)-6-(dimethylamino)-3-(fluoromethyl)-1H-pyrazolo[3,4-d]pyrimidin-4(5H)-one] | 6.1
CC(c1ccc(C(F)F)c(F)c1)n1nc(CF)c2c(=O)[nH]c(N(C)C)nc21 (single isomer, unassigned) [Example 197, (S)- or (R)-1-(1-(4-(Difiuoromethyl)-3-fluorophenyl)ethyl)-6-(dimethylamino)-3-(fluoromethyl)-1H-pyrazolo[3,4-d]pyrimidin-4(5H)-one] | 18
CC(C)C(c1ccc(C(F)(F)F)cc1F)n1nc(CF)c2c(=O)[nH]c(N(C)C)nc21 (single isomer, unassigned) [Example 201, (S)- or (R)-6-(Dimethylamino)-1-(1-(2-fluoro-4-(trifluoromethyl)phenyl)-2-methylpropyl)-3-(fluoromethyl)-1H-pyrazolo[3,4-d]pyrimidin-4(5H)-one] | 1.2
CC(c1ccc(C(C)(F)F)cc1F)n1nc(CF)c2c(=O)[nH]c(N(C)C)nc21 (single isomer, unassigned) [Example 208, (R)- or (S)-1-(1-(4-(1,1-Difluoroethyl)-2-fluorophenyl)ethyl)-6-(dimethylamino)-3-(fluoromethyl)-1H-pyrazolo[3,4-d]pyrimidin-4(5H)-one] | 20
CC(c1ccc(C(C)(F)F)c(F)c1)n1nc(CF)c2c(=O)[nH]c(N(C)C)nc21 (single isomer, unassigned) [Example 210, (R)- or (S)-1-(1-(4-(1,1-Difluoroethyl)-3-fluorophenyl)ethyl)-6-(dimethylamino)-3-(fluoromethyl)-1H-pyrazolo[3,4-d]pyrimidin-4(5H)-one] | 3.3
CC(c1ccc(C(C)(F)F)c(F)c1)n1nc(CF)c2c(=O)[nH]c(N(C)C)nc21 (single isomer, unassigned) [Example 211, (S)- or (R)-1-(1-(4-(1,1-Difluoroethyl)-3-fluorophenyl)ethyl)-6-(dimethylamino)-3-(fluoromethyl)-1H-pyrazolo[3,4-d]pyrimidin-4(5H)-one] | 0.048
CCC(c1ccc(C(C)(F)F)cc1F)n1nc(CF)c2c(=O)[nH]c(N(C)C)nc21 (single isomer, unassigned) [Example 215, (S)- or (R)-1-(1-(4-(1,1-Difluoroethyl)-2-fluorophenyl)propyl)-6-(dimethylamino)-3-(fluoromethyl)-1H-pyrazolo[3,4-d]pyrimidin-4(5H)-one] | 0.98
CCC(c1ccc(C(F)(F)F)c(F)c1)n1nc(CF)c2c(=O)[nH]c(N(C)C)nc21 (single isomer, unassigned) [Example 223, (S)- or (R)-6-(Dimethylamino)-1-(1-(3-fluoro-4-(trifluoromethyl)phenyl)propyl)-3-(fluoromethyl)-1H-pyrazolo[3,4-d]pyrimidin-4(5H)-one] | 1.8
CC(C)(C)C(c1ccc(C(F)(F)F)c(F)c1)n1nc(CC(F)(F)F)c2c(=O)[nH]c(O)nc21 (single isomer, unassigned) [Example 246, (R)- or (S)-1-(1-(3-Fluoro-4-(trifluoromethyl)phenyl)-2,2-dimethylpropyl)-6-hydroxy-3-(2,2,2-trifluoroethyl)-1H-pyrazolo[3,4-d]pyrimidin-4(5H)-one] | 408
CC1(C(c2ccc(C(F)(F)F)c(F)c2)n2nc(CC(F)(F)F)c3c(=O)[nH]c(O)nc32)CC1 (single isomer, unassigned) [Example 248, (R)- or (S)-1-((3-Fluoro-4-(trifluoromethyl)phenyl)(1-methylcyclopropyl)methyl)-6-hydroxy-3-(2,2,2-trifluoroethyl)-1H-pyrazolo[3,4-d]pyrimidin-4(5H)-one] | 47
CC1(C(c2ccc(C(F)(F)F)c(F)c2)n2nc(CC(F)(F)F)c3c(=O)[nH]c(O)nc32)CC1 (single isomer, unassigned) [Example 249, (S)- or (R)-1-((3-Fluoro-4-(trifluoromethyl)phenyl)(1-methylcyclopropyl)methyl)-6-hydroxy-3-(2,2,2-trifluoroethyl)-1H-pyrazolo[3,4-d]pyrimidin-4(5H)-one] | 841
CC(c1ccc(C2CC2)cc1)n1nc(C(F)F)c2c(=O)[nH]c(O)nc21 (single isomer, unassigned) [Example 275, (R)- or (S)-1-(1-(4-Cyclopropylphenyl)ethyl)-3-(difluoromethyl)-6-hydroxy-1H-pyrazolo[3,4-d]pyrimidin-4(5H)-one] | 416

Results, then the molecule that gave them:

Ki [nM] | SMILES
2.7 | CC(c1ccc(CC(F)(F)F)cc1)n1nc(CF)c2c(=O)[nH]c(N(C)C)nc21 (single isomer, unassigned) [Example 174, (R)- or (S)-6-(Dimethylamino)-3-(fluoromethyl)-1-(1-(4-(2,2,2-trifluoroethyl)phenyl)ethyl)-1H-pyrazolo[3,4-d]pyrimidin-4(5H)-one]
1.1 | CN(C)c1nc2c(c(CF)nn2C(c2ccc(C(F)(F)F)cc2)C2CC2)c(=O)[nH]1 (single isomer, unassigned) [Example 178, (R)- or (S)-1-(Cyclopropyl(4-(trifluoromethyl)phenyl)methyl)-6-(dimethylamino)-3-(fluoromethyl)-1H-pyrazolo[3,4-d]pyrimidin-4(5H)-one]
1.1 | CCC(c1ccc(C(F)(F)F)cc1F)n1nc(CF)c2c(=O)[nH]c(N(C)C)nc21 (single isomer, unassigned) [Example 199, (S)- or (R)-6-(Dimethylamino)-1-(1-(2-fluoro-4-(trifluoromethyl)phenyl)propyl)-3-(fluoromethyl)-1H-pyrazolo[3,4-d]pyrimidin-4(5H)-one]
1.4 | CCC(c1ccc(C(C)(F)F)cc1)n1nc(CF)c2c(=O)[nH]c(N(C)C)nc21 (single isomer, unassigned) [Example 204, (R)- or (S)-1-(1-(4-(1,1-Difluoroethyl)phenyl)propyl)-6-(dimethylamino)-3-(fluoromethyl)-1H-pyrazolo[3,4-d]pyrimidin-4(5H)-one]
> 2960 | CC(C)(C)C(c1ccc(C(F)(F)F)c(F)c1)n1nc(CC(F)(F)F)c2c(=O)[nH]c(O)nc21 (single isomer, unassigned) [Example 247, (S)- or (R)-1-(1-(3-Fluoro-4-(trifluoromethyl)phenyl)-2,2-dimethylpropyl)-6-hydroxy-3-(2,2,2-trifluoroethyl)-1H-pyrazolo[3,4-d]pyrimidin-4(5H)-one]
911 | O=c1[nH]c(O)nc2c1c(C(F)F)nn2C(CC(F)(F)F)c1ccc(C(F)(F)F)cc1 (single isomer, unassigned) [Example 271]
43 | O=c1[nH]c(O)nc2c1c(C(F)F)nn2C(CC(F)(F)F)c1ccc(C(F)(F)F)cc1 (single isomer, unassigned) [Example 272]
3.6 | CC(c1ccc(C2CC2)cc1)n1nc(C(F)F)c2c(=O)[nH]c(O)nc21 (single isomer, unassigned) [Example 276, (S)- or (R)-1-(1-(4-Cyclopropylphenyl)ethyl)-3-(difluoromethyl)-6-hydroxy-1H-pyrazolo[3,4-d]pyrimidin-4(5H)-one]
